Experimental data: patent US20110014137A1, “METHODS FOR PROTECTING THE SKIN FROM RADIATION INSULTS” (priority 2007, published 2011)
“Also recorded” adds a separate entry of the source. Read-outs that look alike come from different tables or passages of the source.

Experiments:
[1] = test system: UVB-pretreated high-risk mice; experiment: UVB radiation-induced skin carcinogenesis in high-risk mice, dietary administration; assay type: in vivo; details: for reduction of tumor incidence (percent animals with tumors) / reduction of tumor multiplicity (number of tumors per mouse): 13 weeks; for reduction of tumor multiplicity (number of tumors per mouse): diet; for number of tumors per mouse: control 4.3
Description: Seeds of broccoli (Brassica oleracea italica, cv. DeCicco) were used to grow sprouts as described in Example 1. Growth was arrested after 3 days by plunging sprouts into boiling water and allowed to boil for ˜30 min. This treatment inactivated the endogenous sprout myrosinase and extracted the glucosinolates. […] The powder was mixed with the mouse diet (powdered AIN 76A) to give the equivalent of 10 μmol (low dose) or 50 μmol (high dose) of glucoraphanin per 3 grams of diet.
Body weights and formation of tumors larger than 1 mm in diameter were determined weekly.
UVB radiation was provided by a bank of UV lamps (FS72T12-UVB-HO, National Biological Corporation, Twinsburg, Ohio) emitting UVB (280-320 nm, 65% of total energy) and UVA (320-375 nm, 35% of total energy). The radiant dose of UVB was quantified with a UVB Daavlin Flex Control Integrating Dosimeter and further calibrated with an IL-1400 radiometer (International Light, Newburyport, Mass.).
The animals were irradiated for 20 weeks on Tuesdays and Fridays with a radiant exposure of 30 mJ/cm^2/session. One week later, the mice were divided into three groups: 30 animals in each treatment group and 30 animals in the control group. The mice in the two treatment groups received a diet into which was incorporated a freeze-dried broccoli sprout extract powder. The diet of the low dose treatment group included a freeze-dried broccoli sprout extract powder equivalent to 10 μmol/day glucoraphanin, while the diet of the high dose treatment group included a freeze-dried broccoli sprout extract powder equivalent to 50 μmol/day glucoraphanin. […] The mice were fed this diet for 13 weeks.
Tumor volumes were determined by measuring the height, length, and width of each mass that was larger than 1 mm in diameter. The average of the three measurements was used as the diameter and the volume was calculated (v=4πr^3/3). All mice were euthanized on the same day and the size and multiplicity of tumors was determined. Dorsal skins were dissected using a rectangular template (2.5×5 cm) to include the entire treated areas of the mice. Skins were stapled to cardboard, photographed, and fixed in ice-cold 10% phosphate-buffered formalin at 4° C. for 24 h.
Tumor incidence was evaluated using the Kaplan-Meier survival analysis followed by both a stratified log-rank test and a Wilcoxon test, for equality of survivor functions. Tumor multiplicity was evaluated by ANOVA and comparisons were made on all treatments and on individual, paired treatments (t-test). Tumor volume was evaluated by ANOVA with treatment time as a nested variable. These calculations were performed using Stata 7.0 (College Station, Tex.). Other statistics were calculated using Excel.

[2] = mice, dietary; cited from earlier work
[3] = Plasma levels of sulforaphane and its metabolites after chronic dietary treatment; assay type: in vivo, mice
Description: These levels are adequate to expect biological effects.

[4] = in vivo; cited from earlier work
glutathione [5] = details: topical, extract containing 1 μmol sulforaphane, skin 24 h later, vs vehicle
Description: (§1) The phase 2 response was next evaluated in vivo in […] hairless mice. Female SKH-1 hairless mice (4 weeks old) were obtained from Charles River Breeding Laboratories (Wilmington, Mass.) and were acclimatized in our animal facility for 2 weeks before the start of the experiment. The animals were kept on a 12-h light/12-h dark cycle, 35% humidity, and given free access to water and pelleted AIN 76A diet (Harlan TekLad, free of inducers). All animal experiments were in compliance with the National Institutes of Health Guidelines and were approved by the Johns Hopkins University Animal Care and Use Committee.
(§2) Seven-week-old SKH-1 hairless mice (5 per group) were treated topically on their backs with either 100 μl of a standardized myrosinase-hydrolyzed broccoli sprout extract containing 1 μmol of sulforaphane, or vehicle (100 μl of 80% acetone:20% water, v/v). The animals were euthanized 24 h later and their dorsal skins were dissected using a rectangular template (2.5×5 cm) and frozen in liquid N2. Skin samples were pulverized in liquid N2 and 100 mg of the resulting powder was homogenized in 1 ml of either 0.25 M sucrose buffered with 10 mM Tris-HCl, pH 7.4, for analysis of NQO1 enzymatic activity and protein content, or ice-cold metaphosphoric acid (50 g/liter) in 2 mM EDTA for analysis of glutathione. […]

NQO1 [6] = details: topical, extract containing 1 μmol sulforaphane, skin 24 h later, vs vehicle
Description: as §1, §2

RAW 264.7 cells = experiment: cells; details: Mus musculus, RAW264.7, 24 h, read-out: IC50, inhibition of NO formation
Description: (§3) Cells were treated with various concentrations of sulforaphane and either IFNγ (10 ng/ml) or lipopolysaccharide (LPS; 3 ng/ml) for 24 h. NO in the medium was measured as nitrite by the Griess reaction (A), and iNOS induction was detected by Northern (B) and Western (C) blotting.

HaCaT cells = HaCaT cells at concentrations giving >10-fold NQO1 induction
iNOS = details: IFN-γ 10 ng/ml or LPS 3 ng/ml overnight
Description: as §3
RAW 264.7 macrophages (2×10^6 cells/well) were incubated with sulforaphane and either 10 ng/ml of IFN-γ or 3 ng/ml of LPS overnight. For Northern blots, total RNA was isolated with Trizol reagent (Invitrogen) and prepared for blotting as previously described (33). Probes for iNOS and GAPDH were radiolabeled with […] with random primers. For Western blots, total cell lysates were subjected to SDS/PAGE, transferred to a membrane, and probed with iNOS and β-actin antibodies (Santa Cruz Biotechnology).

NQO1 [7] = experiment: Skin NQO1 specific activity after 311-nm UV radiation; assay type: in vivo, SKH-1 hairless mice; details: three topical doses at 24-h intervals, 700 mJ/cm^2 311-nm UV 24 h after last dose
Description: (§4) The backs of SKH-1 hairless mice were treated topically with three doses at 24-h intervals of: (i) broccoli sprout extract containing 0.5 μmol of sulforaphane in 50 μl of 80% acetone/20% water (vol/vol) applied to the caudal area, and (ii) solvent applied to the rostral area. The animals received 700 mJ/cm^2 of 311-nm UV radiation 24 h after the last dose and were euthanized 24 h later, and their dorsal skin was harvested. (A) Fresh frozen 9-μm-thick sections of skin were fixed with paraformaldehyde and stained with H&E. (Scale bar 100 μm). (B) Mice were irradiated with a range of doses of UV radiation and euthanized 24 h later. (C) MPO-specific activity was measured in supernatant fractions of total homogenates prepared from liquid nitrogen-frozen and pulverized dorsal skin, and its protein levels were detected by Western blots with anti-MPO antibody (Hycult Biotechnology, Uden, The Netherlands). […] (D and E) MPO-specific (D) and NQO1-specific (E) activities were measured in supernatant fractions of total skin homogenates from mice treated with solvent (black bars), sulforaphane (gray bars), and broccoli sprout extract (white bars) and are expressed as ratios of each treatment to the non-irradiated control. Average values±SD are shown. Eight animals were used in the control group, and four in each of the treatment groups.

PE murine keratinocytes = details: 5 μM for 24 h, UVA 10 J/cm^2, PE cells
Description: Cells (50,000 per well) were plated on 24-well plates, treated with 5 μM sulforaphane for 24 h, washed with DPBS, and then exposed to UVA (10 J/cm^2). Reactive oxygen intermediates generated by the UV radiation were quantified by the fluorescent probe 2′,7′-dichlorodinitrofluorescein and fluorescence intensity was measured (expressed as a ratio of exposed to non-exposed cells).
PE cells (50,000 per well) were seeded into 24-well plates and grown for 48 h. The cells were then exposed to 1 μM or 5 μM sulforaphane for 24 h. On the day of the experiments, after removing the medium, the cells were incubated with 100 μM 2′,7′-dichlorodinitrofluorescein diacetate in 500 μl of fresh medium (Molecular Probes, Eugene, Oreg.) for 30 min. The medium containing the fluorescent probe was then removed, the cells were washed with DPBS, and exposed to UVA radiation (10 J/cm^2). Control cells were kept in the dark. Cells were detached with trypsin, suspended in 2.0 ml of DPBS, and the intensity of fluorescence was determined in cell suspensions at 520 nm with an excitation of 485 nm in 2-ml cuvettes in a Perkin-Elmer LS50 spectrofluorimeter.

myeloperoxidase (MPO) = experiment: Skin myeloperoxidase (MPO) after 311-nm UV radiation; assay type: in vivo, SKH-1 hairless mice; details: three topical doses at 24-h intervals, 700 mJ/cm^2 311-nm UV 24 h after last dose
Description: as §4

glutathione [8] = details: 24 h exposure, serial dilutions
Description: (§5) Cells (20,000 per well) were plated on 96-well plates and exposed to a series of concentrations of sulforaphane. GSH and NQO1 levels were measured in cell lysates after 24 h and 48 h, respectively. Each data point represents the average of the measurements from 8 different wells.
(§6) HaCaT human keratinocytes (a gift from G. Tim Bowden, Arizona Cancer Center, Tucson) were cultured in Dulbecco's modified Eagle's medium (DMEM) supplemented with 5% FBS; and PE murine keratinocytes (a gift from Stuart H. Yuspa, National Cancer Institute, Bethesda, Md.) were cultured in Eagle's minimum essential medium (EMEM) with 8% FBS, treated with Chelex resin (Bio-Rad) to remove Ca^2+.
(§7) Cells (20,000 per well) were grown for 24 h in 96-well plates, then exposed to serial dilutions of sulforaphane for either 24 h (for glutathione determination) or 48 h (for NQO1 determination), and finally lysed in 0.08% digitonin. An aliquot (25 μl) was used for protein analysis. Activity of NQO1 was determined by the Prochaska test (29,30). To measure the intracellular glutathione levels, 25 μl of cell lysate received 50 μl of ice-cold metaphosphoric acid (50 g/liter) in 2 mM EDTA to precipitate cellular protein. After 10 min at 4° C., plates were centrifuged at 1,500 g for 15 min and 50 μl of the resulting supernatant fractions were transferred to a parallel plate. To each of these wells, 50 μl of 200 mM sodium phosphate buffer, pH 7.5, containing 10 mM EDTA, were added and total cellular glutathione was determined by rate measurements in a recycling assay (31,32).

quinone reductase (NQO1) = details: 48 h exposure; for intracellular level of NQO1: serial dilutions
Description: as §5, §6, §7

C[S+]([O-])CCCC/C(=N\OS(=O)(=O)O)S[C@@H]1O[C@H](CO)[C@@H](O)[C@H](O)[C@H]1O (stereo partly shown) [glucoraphanin]
inhibition in the total tumor volume per mouse ([1]; high dose 50 μmol/day): 70% | reduction of tumor incidence (percent animals with tumors) ([1]; high dose 50 μmol/day glucoraphanin as freeze-dried broccoli sprout extract powder in diet): 35% | reduction of tumor multiplicity (number of tumors per mouse) ([1]; high dose 50 μmol/day): 72% | number of tumors per mouse ([1]; high dose 50 μmol/day): 1.2 | inhibition in the total tumor volume per mouse ([1]; low dose 10 μmol/day): 70% | reduction of tumor incidence (percent animals with tumors) ([1]; low dose 10 μmol/day glucoraphanin as freeze-dried broccoli sprout extract powder in diet): 25% | reduction of tumor multiplicity (number of tumors per mouse) ([1]; low dose 10 μmol/day): 47% | number of tumors per mouse ([1]; low dose 10 μmol/day): 2.3 | fraction converted to sulforaphane upon ingestion [2]: about 10% | plasma levels of sulforaphane and its metabolites ([3]; high dose 50 μmol/day glucoraphanin): 2500 nM | plasma levels of sulforaphane and its metabolites ([3]; low dose 10 μmol/day glucoraphanin): 2200 nM

C[S+]([O-])CCCCN=C=S (stereo not shown) [sulforaphane, 4-methylsulfinylbutyl isothiocyanate]
tissue half-life [4]: 1 to 2 h | elevation of the total glutathione levels (glutathione [5]): ~15% | induction of NQO1 (NQO1 [6]): ~50% | IC50 (RAW 264.7 cells): 300 nM | cytotoxicity (HaCaT cells): without any apparent evidence of cytotoxicity | reduction of tumor multiplicity (number of tumors per mouse) ([1]; high dose 50 μmol/day): 72% | reduction of tumor multiplicity (number of tumors per mouse) ([1]; low dose 10 μmol/day): 47% | synthesis of iNOS mRNA (iNOS; Northern blot): inhibited | synthesis of iNOS protein (iNOS; Western blot): inhibited | NQO1 specific activity in skin homogenates (NQO1 [7]): increased the specific activities; also recorded: restoration of the UV radiation decreased NQO1 levels | reduction in reactive oxygen intermediates generated by the UV radiation (PE murine keratinocytes): 50% | UV radiation-induced MPO protein and enzyme activity (myeloperoxidase (MPO)): suppressed the increases of MPO protein and enzyme activity levels; also recorded: equivalent protection against the UV radiation-induced MPO elevation | intracellular level of glutathione (glutathione [8]; HaCaT human keratinocytes): increased in a dose-dependent manner | intracellular level of glutathione (glutathione [8]; PE murine keratinocytes): increased in a dose-dependent manner | magnitude of NQO1 induction (quinone reductase (NQO1); HaCaT cells): > 10 fold | intracellular level of NQO1 (quinone reductase (NQO1); HaCaT human keratinocytes): increased in a dose-dependent manner | intracellular level of NQO1 (quinone reductase (NQO1); PE murine keratinocytes): increased in a dose-dependent manner
